Laboratory results published in ChEMBL document CHEMBL1165911, “Elaborate ligand-based pharmacophore exploration and QSAR analysis guide the synthesis of novel pyridinium-based potent beta-secretase inhibitory leads” (Bioorg Med Chem, 2010).
Peptide text beside a SMILES is read from it. * marks the point of attachment. Boc = CC(C)(C)OC(=O)*; OBn = c1ccc(CO*)cc1; Bn = c1ccc(C*)cc1

The compounds below were run against Beta-secretase 1 (Homo sapiens, UniProt P56817).
Chain of Beta-secretase 1 (P56817 whole entry): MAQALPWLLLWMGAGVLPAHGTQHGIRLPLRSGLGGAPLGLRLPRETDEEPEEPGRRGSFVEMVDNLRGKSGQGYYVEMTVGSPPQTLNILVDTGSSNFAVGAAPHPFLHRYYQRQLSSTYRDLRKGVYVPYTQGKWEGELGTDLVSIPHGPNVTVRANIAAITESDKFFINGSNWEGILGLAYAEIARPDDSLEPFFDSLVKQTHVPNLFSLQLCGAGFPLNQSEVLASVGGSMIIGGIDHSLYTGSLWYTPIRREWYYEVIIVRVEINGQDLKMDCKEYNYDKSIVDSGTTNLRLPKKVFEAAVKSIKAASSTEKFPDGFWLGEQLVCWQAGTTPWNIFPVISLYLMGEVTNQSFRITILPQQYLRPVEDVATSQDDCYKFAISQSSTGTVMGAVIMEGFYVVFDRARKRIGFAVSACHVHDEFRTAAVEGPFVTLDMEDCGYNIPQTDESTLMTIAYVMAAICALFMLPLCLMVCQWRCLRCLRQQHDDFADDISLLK
Description: Inhibition of BACE1 after 2 hrs by FRET assay

| IC50 [µM] | SMILES |
| --- | --- |
| 10 | C[C@@H](NC(=O)c1cc(C(=O)N[C@@H](Cc2ccccc2)[C@H](O)CNC2CC2)cc(N(C)S(C)(=O)=O)c1)c1ccc(F)cc1 |
| 1 | CC(C)(C)OC(=O)N1CCN(c2ccc(Br)cc2NC(=O)c2cccc3ccccc23)CC1 |
| 20 | O=C(Nc1cc(Br)ccc1N1CCOCC1)c1cccc2ccccc12 |
| 100 | NNC(=O)CN1C(CN2CCOCC2)=Nc2ccc(Br)cc2C1c1ccccc1 (stereo unspecified) |
| 100 | O=C(Nc1ccc(Cl)c(C(F)(F)F)c1)C(NS(=O)(=O)c1cccs1)c1ccccc1 (stereo unspecified) |
| 100 | Clc1ccc(/C=N/Nc2nc(Nc3cccc(Br)c3)nc(N3CCOCC3)n2)cc1 |
| 100 | O=C(NCc1ccccc1)c1ccc(N2CC3CC(C2)c2cccc(=O)n2C3)c(NS(=O)(=O)c2ccc3c(c2)OCCO3)c1 (stereo unspecified) |
| 100 | CCCCc1ccc(Nc2nc3ccccc3nc2NS(=O)(=O)c2ccc(Cl)cc2)cc1 |
| 500 | Cc1c(CC(=O)N[C@H](CCCNC(N)=O)C(=O)O)c(=O)oc2cc(O)ccc12 |
| 100 | Clc1ccc(/C=N/Nc2nc(Nc3ccccc3)nc(Nc3ccccc3)n2)cc1Cl |
| 100 | Cc1ccc(CNC(=O)c2ccc(N3CC4CC(C3)c3cccc(=O)n3C4)c(NS(=O)(=O)c3ccc4c(c3)OCCO4)c2)cc1 (stereo unspecified) |
| 1000 | Cc1cc(C)nc(NS(=O)(=O)c2ccc(Nc3nc(-c4ccc(C(C)C)cc4)cs3)cc2)n1 |
| 100 | COc1cc2[nH]c(=O)n(Cc3ccc(C(=O)NCc4ccc(C)cc4)cc3)c(=O)c2cc1OC |
| 500 | Cc1c(CC(=O)N[C@H](CCCNC(N)=O)C(=O)O)c(=O)oc2c(C)c(O)ccc12 |
| 100 | COc1cc(/C=N/Nc2nc(Nc3ccccc3)nc(N3CCOCC3)n2)cc(Br)c1O |
| 500 | Cc1oc(-c2ccccc2)cc1C(=O)NCC(=O)NC(C(=O)O)C(C)C (stereo unspecified) |
| 11.9 | CCOc1nc(NCCN2CCOCC2)nc(NNc2ccc(I)cc2C)n1 |
| 100 | CC1CCCCN1CCNC(=O)c1cc(=O)[nH]c2ccc(S(=O)(=O)N3CCOCC3)cc12 (stereo unspecified) |
| 100 | CC1CCCCN1CCNC(=O)c1cc(=O)[nH]c2ccc(S(=O)(=O)N3CCCCC3)cc12 (stereo unspecified) |
| 100 | CC1CCN(S(=O)(=O)c2ccc3[nH]c(=O)cc(C(=O)NCCCN4CCCC4)c3c2)CC1 |
| 100 | Clc1nc(NCCN2CCOCC2)nc(NCc2ccc(I)cc2)n1 |
| 100 | FC(F)(Cl)Oc1ccc(Nc2nc(NCc3ccccc3)nc(N3CCCCC3)n2)cc1 |
| 100 | CN(C)c1nc(N/N=C/c2cc(I)cc(I)c2O)nc(N2CCOCC2)n1 |

| IC50 [µM] | SMILES |
| --- | --- |
| 100 | Oc1ccc(-c2ccccc2)cc1CN1CCN(Cc2cc(-c3ccccc3)ccc2O)CC1 |
| 100 | Oc1c(I)cc(I)cc1/C=N/Nc1nc(NCc2ccccc2)nc(N2CCOCC2)n1 |
| 100 | O=C(NCc1ccc(Cl)cc1)c1ccc(N2CC3CC(C2)c2cccc(=O)n2C3)c(NS(=O)(=O)c2ccc3c(c2)OCCO3)c1 (stereo unspecified) |
| 100 | CCc1ccc(N2C(=O)Nc3ccc(Br)cc3C2(O)C(=O)NCC(C)CN2CCC(C)CC2)cc1 (stereo unspecified) |
| 500 | O=C(O)CCCNC(=O)CCCCC(=O)C(c1ccccc1)c1ccccc1 |
| 100 | CCSc1sc(CC)cc1C1C(C(=O)Nc2ccc(C)cn2)=C(C)NC2=C1C(=O)CC(C)(C)C2 (stereo unspecified) |
| 100 | CCN1CCCC1CNC(=O)c1ccc2c(=O)n(Cc3cccc(Br)c3)c(=S)[nH]c2c1 (stereo unspecified) |
| 15 | C[C@@H](NC(=O)c1cc(C(=O)N[C@@H](Cc2ccccc2)[C@H](O)CNC(C)(C)C)cc(N(C)S(C)(=O)=O)c1)c1ccc(F)cc1 |
| 100 | CCc1ccc(N2C(=O)Nc3ccc(Br)cc3C2(O)C(=O)NCc2ccccc2)cc1 (stereo unspecified) |
| 100 | O=C(NCCc1ccc(Cl)cc1)c1ccc(Cn2c(=S)[nH]c3ccc(N4CCOCC4)cc3c2=O)cc1 |
| 1 | COc1cccc2cc(C(=O)Nc3cc(Br)ccc3N3CCN(C(=O)OC(C)(C)C)CC3)c(=O)oc12 |
| 500 | Cc1cc(O)c2c(C)c(CC(=O)N[C@H](CCCNC(N)=O)C(=O)O)c(=O)oc2c1 |
| 100 | Cc1ccc(Nc2nc(N/N=C/c3ccc(Cl)c(Cl)c3)nc(N3CCOCC3)n2)c(Cl)c1 |
| 100 | O=C(NCCc1ccc(Cl)cc1)C1CCC(CNc2nc(=S)[nH]c3ccccc23)CC1 (stereo unspecified) |
| 23 | C[C@@H](NC(=O)c1cc(C(=O)N[C@@H](Cc2ccccc2)[C@H](O)CN)cc(N(C)S(C)(=O)=O)c1)c1ccc(F)cc1 |
| 100 | CCN1CCN(CCNC(=O)c2ccc3c(=O)n(Cc4ccc(Cl)cc4)c(=S)[nH]c3c2)CC1 |
| 7.1 | O=C(O)c1cc(-c2ccc(/C=N/Nc3nc(Nc4ccc(F)cc4)nc(N4CCOCC4)n3)o2)ccc1Cl |
| 10 | COc1cccc2cc(C(=O)Nc3cc(Br)ccc3N3CCOCC3)c(=O)oc12 |
| 100 | O=C(NCc1ccccc1Cl)c1ccc(N2CC3CC(C2)c2cccc(=O)n2C3)c(NS(=O)(=O)c2ccc3c(c2)OCCO3)c1 (stereo unspecified) |
| 100 | CCOc1cc(/C=N\NC(=O)COc2ccc(C)cc2)cc(I)c1O |
| 100 | COc1ccc(-n2nc(C(=O)NCC(=O)Nc3cccc(C)n3)c3ccccc3c2=O)cc1Cl |
| 100 | O=C(NCc1ccc(F)cc1)c1ccc(N2CC3CC(C2)c2cccc(=O)n2C3)c(NS(=O)(=O)c2ccc3c(c2)OCCO3)c1 (stereo unspecified) |
| 100 | CN(C)CCNC(=O)c1c[nH]c2ccc(S(=O)(=O)N3CCc4ccccc4C3)cc2c1=O |

| IC50 [µM] | SMILES |
| --- | --- |
| 152 | O=C(O)c1cc(-c2ccc(/C=N/Nc3nc(Nc4ccccc4)nc(N4CCCCC4)n3)o2)ccc1Cl |
| 100 | CCCCCCc1nc2ccccc2c(=O)n1NC(O)c1c(O)c2cccc3c2n(c1=O)CCC3 (stereo unspecified) |
| 100 | O=C1CSC(c2ccc(Cl)cc2)N1Nc1nc(Nc2ccccc2)nc(N2CCCCC2)n1 (stereo unspecified) |
| 41 | CC(C)S(=O)(=O)N(C)c1cc(C(=O)N[C@@H](Cc2ccccc2)[C@H](O)CNC2CC2)cc(C(=O)N[C@H](C)c2ccccc2)c1 |
| 100 | O=C(O)c1cccc(-c2ccc(/C=N/Nc3nc(Nc4ccccc4)nc(N4CCCCC4)n3)o2)c1 |
| 100 | C=CCn1c(SCC(=O)Nc2ccc(S(N)(=O)=O)cc2)nc2sc3c(c2c1=O)CCCC3 |
| 500 | CCc1cc(=O)oc2c(C)c(OC(=O)NCC(=O)NCC(=O)O)ccc12 |
| 500 | O=C(O)CC(NNc1nc(NCCO)nc(N2CCOCC2)n1)c1ccccc1 (stereo unspecified) |
| 100 | CSc1ccc(C(O)C(CO)NC(=O)c2cc3c(n(-c4ccc(Cl)cc4)c2=O)CC(C)(C)CC3=O)cc1 (stereo unspecified) |
| 25 | C=CN(C=C)C(=O)c1cc(OCC(=O)NCCCCCN)cc(C(=O)N[C@H](C)c2ccccc2)c1 |
| 100 | C[C@H](NC(=O)c1cc(OCC(=O)NCCCCCN)cc(OS(=O)(=O)Cc2ccccc2)c1)c1ccccc1 |
| 100 | Cc1ccc(C)c(Nc2nc(N/N=C/c3cc(Br)cc(Br)c3O)nc(N3CCOCC3)n2)c1 |
| 100 | NS(=O)(=O)c1ccc(NC(=O)CSc2nnc(-c3ccccc3)c(-c3ccccc3)n2)cc1 |
| 100 | Oc1c(I)cc(I)cc1/C=N/Nc1nc(Nc2cccc3ccccc23)nc(N2CCOCC2)n1 |
| 5 | COc1cccc2cc(C(=O)Nc3cc(Br)ccc3N3CCN(Cc4ccccc4)CC3)c(=O)oc12 |
| 100 | COc1ccc(OC)c(/N=c2\oc3c(C)ncc(CO)c3cc2C(=O)Nc2ccc(Cl)cc2)c1 |
| 100 | CC(C)(C)OC(=O)NC(CC(=O)OCc1ccccc1)C(=O)NC(COCc1ccccc1)C(=O)NCC(=O)OCc1ccccc1 (stereo unspecified) (Boc-Asp(OBn)-Ser(Bn)-Gly-OBn; configuration not given here) |
| 100 | CCCc1cc(=O)oc2c(C)c(OCC(=O)NCC(=O)NCC(=O)O)ccc12 |
| 500 | COc1cccc(C(=O)OCC(=O)NCc2ccc(Cl)cc2Cl)c1O |
| 100 | COc1cc(/C=N/Nc2nc(Nc3ccc(F)cc3)nc(N3CCCCC3)n2)ccc1OCC(=O)O |
| 100 | O=C(NCc1ccccc1)c1c[nH]c2ccc(S(=O)(=O)NC3CCCCNC3=O)cc2c1=O (stereo unspecified) |
| 100 | CCOc1cc(C2C(C(=O)OCc3ccccc3)=C(C)NC3=C2C(=O)CC(C)(C)C3)cc(Br)c1O (stereo unspecified) |
| 500 | CCCc1cc(=O)oc2cc(OCC(=O)NCC(=O)NCC(=O)O)ccc12 |

| IC50 [µM] | SMILES |
| --- | --- |
| 63 | C[C@@H](NC(=O)c1cc(NS(C)(=O)=O)cc(C(=O)N[C@@H](Cc2ccccc2)[C@H](O)CNC2CC2)c1)c1ccc(F)cc1 |
| 10 | O=C(Nc1cc(Br)ccc1N1CCOCC1)c1cc2ccccc2oc1=O |
| 500 | Cc1ccc(NC(=O)c2cc(NC(=O)CCCC(=O)O)ccc2N2CCOCC2)cc1 |
| 100 | O=C(CN1CCN(Cc2ccccc2)CC1)N/N=C\c1cc(I)cc(I)c1O |
| 100 | Cc1cccc(N(C)S(=O)(=O)c2ccc3ncc(C(=O)NCCN4CCOCC4)c(O)c3c2)c1 |
| 14 | C[C@@H](NC(=O)c1cc(C(=O)N[C@@H](Cc2ccccc2)[C@H](O)CNC2CC2)cc(N(C)S(=O)(=O)N(C)C)c1)c1ccccc1 |
| 100 | CCOC(=O)C(Cc1ccc(O)cc1)NS(=O)(=O)c1ccc2c(c1)C(=O)c1ccccc1C2=O (stereo unspecified) |
| 100 | CCN1CCCC1CNC(=O)c1ccc2c(=O)n(Cc3ccc(Cl)cc3)c(=S)[nH]c2c1 (stereo unspecified) |
| 100 | O=C(CC1Sc2ccccc2NC1=O)Nc1ccccc1SC(F)(F)C(F)(F)C(F)(F)F (stereo unspecified) |
| 48.1 | Cc1ccc(Nc2nc(CN3CCOCC3)nc(N/N=C/c3cc(Br)cc(Br)c3O)n2)cc1 |
| 100 | Clc1ccc(/C=N/Nc2nc(NCc3ccc(Cl)cc3)nc(N3CCOCC3)n2)cc1 |
| 100 | O=C(Nc1ccccc1C(=O)NCC(O)CNC(=O)c1ccccc1NC(=O)c1ccccc1)c1ccccc1 |
| 100 | Cc1ccc(Nc2nc(N/N=C/c3cccc(Br)c3)nc(N3CCOCC3)n2)cc1 |
| 5 | O=C(Nc1cc(Br)ccc1N1CCN(Cc2ccccc2)CC1)c1cccc2ccccc12 |
| 500 | CC(NC(=O)NCCNC(=O)NC(C)C(=O)O)C(=O)O (stereo unspecified) |
| 100 | CC(=O)Nc1cc(C(=O)NCc2cc(F)cc(Cl)c2)ccc1Sc1ccc(Cl)cc1 |
| 27.9 | O=C(O)c1cc(-c2ccc(/C=N/Nc3nc(Nc4ccc(F)cc4)nc(N4CCCCC4)n3)o2)ccc1O |
| 81.8 | Cc1ccc(C)c(Nc2nc(N/N=C/c3cc(Br)c(O)c(Br)c3C)nc(N3CCOCC3)n2)c1 |
| 500 | COc1cc(/C=N\NC(=O)c2ccccc2OCCOc2ccccc2)cc(Br)c1O |
| 100 | COc1nc(NCCN2CCOCC2)nc(Nc2ccc(I)cc2)n1 |
| 100 | Cc1cc(Br)c(Nc2nc(CN3CCOCC3)nc(N/N=C/c3cc(I)cc(C)c3O)n2)cc1Cl |

| SMILES | IC50 [µM] |
| --- | --- |
| CCNC[C@@H](O)[C@H](Cc1ccccc1)NC(=O)c1cc(C(=O)N[C@H](C)c2ccc(F)cc2)cc(N(C)S(C)(=O)=O)c1 | 15 |
